Assay results published in patent US12606533B2, “3-phenylpropylamine derivative” (DAIICHI SANKYO COMPANY, LIMITED, priority 2023, dated 2026).

Experiments:
SF-1 = target: T1, SF-1 (Homo sapiens, UniProt Q13285); assay: SF1 degradation induction in NCI-H295R SF-1-HiBiT cells (HiBiT DC50); assay type: cell-based; conditions: 24 hr, concentration that induces 50% degradation of SF-1
T1 construct: NCI-H295R SF-1-HiBiT cells with HiBiT tag knocked in at the endogenous SF1 locus; host or cells: NCI-H295R SF-1-HiBiT (knock-in at endogenous locus)
Procedure: NCI-H295R SF-1-HiBiT cells were seeded in a 384-well plate (Thermo Fisher Scientific Inc.) at 1×10^4 cells/50 μL/well and cultured at 37° C. in a 5% CO2 incubator for 24 hr. DMSO solutions of each compound were serially diluted with DMSO using a D300e Digital Dispenser (TECAN), added to a 384-well plate, and cultured in a 5% CO2 incubator at 37° C. for 24 hr. […] After completion of culture, the medium was discarded, and Nano-Glo (registered trade mark) HiBiT Lytic Detection System (Promega, Cat. No. N3040) was added at 20 μL/well and stirred with a plate mixer. Luminescence signals were then detected using a multimode plate reader (EnVision Xcite, PerkinElmer). The SF-1 protein degradation rate was calculated from the amount of luminescence (C) in the compound-free group and the amount of luminescence (T) in the compound-added group, based on the following formula.
The obtained data was analyzed using GraphPad Prism9 (GraphPad Software Inc.) or Genedata Screener (Genedata AG) to calculate the concentration that induces 50% degradation of SF-1 (DC50 value).

NCI-H295R cells = assay: Proliferation inhibitory action on NCI-H295R (CellTiter-Glo, 7 days); assay type: cell-based, human; conditions: Homo sapiens, NCI-H295R, 168 h
Procedure: DMSO solutions of each compound were serially diluted with DMSO using a D300e Digital Dispenser (TECAN), and added to a 384-well plate (Thermo Fisher Scientific Inc.). NCI-H295R cells were seeded in a 384-well plate at 2×10^3 cells/40 μL/well and cultured for 7 days in a 37° C., 5% CO2 incubator. […] On the first day of culture (day 0) and the seventh day of culture (day 7), 10 μL/well of CellTiter-Glo (registered trademark) 2.0 Assay (Promega) was added, and the luminescence signal was detected using a multimode plate reader (EnVision, PerkinElmer). The cell proliferation rate was calculated from the luminescence amount on the day of compound addition (CO), the luminescence amount of the compound-free group after 7 days of culture (C7), and the luminescence amount of the compound-added group (T7), based on the following formula.

| DC50 (SF-1) [nM] | GI50 (NCI-H295R cells) [nM] | SMILES |
| --- | --- | --- |
| 6.2 | 90 | COc1ccc([C@]2(CCN(Cc3ccc([C@H]4CC[C@@H](CN5CCN(C(=O)c6ccc7c(c6)n(C)c(=O)n7C6CCC(=O)NC6=O)CC5)CC4)cc3)CC(C)(C)C(F)(F)F)CCOC(C)(C)C2)cc1 (stereo partly drawn) [Example AI11, 3-{5-[(4-{[Cis-4-(4-{[{2-[(4R)-4-(4-methoxyphenyl)-2,2-dimethyltetrahydro-2H-pyran-4-yl]ethyl}(3,3,3-trifluoro-2,2-dimethylpropyl)amino]methyl}phenyl)cyclohexyl]methyl}piperazin-1-yl)carbonyl]-3-methyl-2-oxo-2,3-dihydro-1H-benzimidazol-1-yl}piperidine-2,6-dione] |
| 14 | 70 | COc1ccc([C@]2(CCN(Cc3ccc(C4=CC[C@H](C(=O)N5CCC(Nc6ccc7c(c6)C(=O)N(C6CCC(=O)NC6=O)C7)CC5)CC4)cc3)CC(C)(C)C(F)(F)F)CCOC(C)(C)C2)cc1 (stereo partly drawn) [BS3, 3-{6-[(1-{[(4R)-4′-{[{2-[(4R)-4-(4-Methoxyphenyl)-2,2-dimethyltetrahydro-2H-pyran-4-yl]ethyl)(3,3,3-trifluoro-2,2-dimethylpropyl)amino]methyl}-2,3,4,5-tetrahydro[biphenyl]-4-yl]carbonyl}piperidin-4-yl)amino]-1-oxo-1,3-dihydro-2H-isoindol-2-yl}piperidine-2,6-dione] |
| 4.5 | 83 | COc1ccc([C@]2(CCN(Cc3ccc(OC4CC5(CCN(CC(=O)N6Cc7ccc8c(c7C6)n(C)c(=O)n8C6CCC(=O)NC6=O)CC5)C4)cc3)CC(C)(C)C(F)(F)F)CCOC(C)(C)C2)cc1 (stereo partly drawn) [Example AL4, 3-[7-{[2-(4-{[{2-[(4R)-4-(4-Methoxyphenyl)-2,2-dimethyltetrahydro-2H-pyran-4-yl]ethyl}(3,3,3-trifluoro-2,2-dimethylpropyl)amino]methyl}phenoxy)-7-azaspiro[3.5]nonan-7-yl]acetyl}-1-methyl-2-oxo-1,6,7,8-tetrahydroimidazo[4,5-e]isoindole-3(2H)-yl]piperidine-2,6-dione] |
| 5.7 | 123 | COc1ccc([C@]2(CCN(Cc3ccc(C4=CCC(CN5CCN(C(=O)c6cccc7c6n(C)c(=O)n7C6CCC(=O)NC6=O)CC5)CC4)cc3)CC(C)(C)C(F)(F)F)CCOC(C)(C)C2)cc1 (stereo partly drawn) [Example AH4, 3-[4-({4-[(4′-{[{2-[(4R)-4-(4-Methoxyphenyl)-2,2-dimethyltetrahydro-2H-pyran-4-yl]ethyl}(3,3,3-trifluoro-2,2-dimethylpropyl)amino]methyl}-2,3,4,5-tetrahydro[biphenyl]-4-yl)methyl]piperazin-1-yl}carbonyl)-3-methyl-2-oxo-2,3-dihydro-1H-benzimidazol-1-yl]piperidine-2,6-dione] |
| 4.1 | 68 | COc1ccc([C@]2(CCN(Cc3ccc(C4=CC[C@H](CN5CCN(C(=O)c6ccc7c(c6)n(C)c(=O)n7[C@H]6CCC(=O)NC6=O)CC5)CC4)cc3)CC(C)(C)C(F)(F)F)CCOC(C)(C)C2)cc1 [AP6, (3S)-3-{5-[(4-{[(4R)-4′-{[{2-[(4R)-4-(4-Methoxyphenyl)-2,2-dimethyltetrahydro-2H-pyran-4-yl]ethyl}(3,3,3-trifluoro-2,2-dimethylpropyl)amino]methyl}-2,3,4,5-tetrahydro[biphenyl]-4-yl]methyl}piperazin-1-yl)carbonyl]-3-methyl-2-oxo-2,3-dihydro-1H-benzimidazol-1-yl}piperidine-2,6-dione] |
| 29 | 165 | COc1ccc(C2(CCN(Cc3ccc(OC4CCN(CC(=O)Nc5cccc6c5n(C)c(=O)n6C5CCC(=O)NC5=O)CC4)cc3)CC(C)(C)C(F)(F)F)CCC(F)(F)CC2)cc1 (stereo not drawn) [Example AB6, 2-[4-(4-{[{2-[4,4-Difluoro-1-(4-methoxyphenyl)cyclohexyl]ethyl}(3,3,3-trifluoro-2,2-dimethylpropyl)amino]methyl}phenoxy)piperidin-1-yl]-N-[1-(2,6-dioxopiperidin-3-yl)-3-methyl-2-oxo-2,3-dihydro-1H-benzimidazol-4-yl]acetamide] |
